{"source": "patent US10800792B2", "about": "“Inhibitors of Bruton's tyrosine kinase and method of their use” (JANSSEN PHARMACEUTICA NV, priority 2015, dated 2020)"}
{"target": "unphosphorylated-BTK kinase domain (UP-BTK), GST-tagged human BTK (389-659aa) (Homo sapiens (Human), UniProt Q06187)", "sequence (Q06187 389-659)": "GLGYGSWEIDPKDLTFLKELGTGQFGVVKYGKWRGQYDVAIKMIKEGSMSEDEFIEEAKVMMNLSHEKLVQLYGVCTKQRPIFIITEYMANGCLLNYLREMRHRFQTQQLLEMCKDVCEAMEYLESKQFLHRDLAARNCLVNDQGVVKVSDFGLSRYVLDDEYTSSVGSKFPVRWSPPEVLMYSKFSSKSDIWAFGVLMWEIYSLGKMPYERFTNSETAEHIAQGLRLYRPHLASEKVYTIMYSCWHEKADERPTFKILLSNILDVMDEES", "assay": "BTK kinase Lanthascreen binding assay", "details": "Lanthascreen tracer competition, 60 minutes incubation; pIC50 = negative log of the IC50 in molar", "how_it_was_run": "(§1)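 Tracer-displacement binding assay against the non-phosphorylated enzyme, read by Lanthascreen. Reported: pIC50.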"}
{"smiles": "Cc1c(Oc2ccccc2)cccc1N1C(=O)Nc2c(C(=O)N[C@@H]3CCCN(C(=O)/C(C#N)=C/C4CC4)C3)sc3nccc1c23", "note": "[Example 901, (R,E)-N-(1-(2-Cyano-3-cyclopropylacryloyl)piperidin-3-yl)-5-(2-methyl-3-phenoxyphenyl)-4-oxo-4,5-dihydro-3H-1-thia-3,5,8-triazaacenaphthylene-2-carboxamide]", "BTK_I_binding pIC50": 6.8}
{"smiles": "C=CC(=O)N1CCC[C@@H](NC(=O)c2sc3nccc4c3c2NC(=O)N4c2ccnc(-c3cccnc3)c2)C1", "note": "[Example 701, (R)-5-([2,3′-Bipyridin]-4-yl)-N-(1-acryloylpiperidin-3-yl)-4-oxo-4,5-dihydro-3H-1-thia-3,5,8-triazaacenaphthylene-2-carboxamide]", "BTK_I_binding pIC50": 7.2}
{"smiles": "C=CC(=O)N1CCC[C@@H](NC(=O)c2sc3nccc4c3c2NC(=O)N4c2cnc(Oc3ccccc3)nc2C)C1", "note": "(single isomer, unassigned) [Example 746, (R)—N-(1-Acryloylpiperidin-3-yl)-5-(*S)-(4-methyl-2-phenoxypyrimidin-5-yl)-4-oxo-4,5-dihydro-3H-1-thia-3,5,8-triazaacenaphthylene-2-carboxamide]", "BTK_I_binding pIC50": 8.1}
{"smiles": "C=CC(=O)N1CCC[C@@H](NC(=O)c2sc3nccc4c3c2NC(=O)N4c2ccc(OC3CCC3)nc2C)C1", "note": "(single isomer, unassigned) [Example 736, (R)—N-(1-Acryloylpiperidin-3-yl)-5-(*R)-(6-cyclobutoxy-2-methylpyridin-3-yl)-4-oxo-4,5-dihydro-3H-1-thia-3,5,8-triazaacenaphthylene-2-carboxamide]", "BTK_I_binding pIC50": "<6"}
{"smiles": "CC(C)(C)OC(=O)N1CCC[C@@H](NC(=O)c2sc3nccc4c3c2NC(=O)N4c2ccc(Oc3ccccc3)cc2)C1", "note": "[Example 628, (R)-tert-Butyl 3-(4-oxo-5-(4-phenoxyphenyl)-4,5-dihydro-3H-1-thia-3,5,8-triazaacenaphthylene-2-carboxamido)piperidine-1-carboxylate]", "BTK_I_binding pIC50": 5.8}
{"smiles": "C=CC(=O)N1CCC[C@@H](NC(=O)c2sc3nccc4c3c2NC(=O)N4c2ccc(Oc3cccc(COc4ccccc4C#N)c3)cc2C)C1", "note": "[Example 894, (R)—N-(1-Acryloylpiperidin-3-yl)-5-(4-(3-((2-cyanophenoxy)methyl)phenoxy)-2-methylphenyl)-4-oxo-4,5-dihydro-3H-1-thia-3,5,8-triazaacenaphthylene-2-carboxamide]", "BTK_I_binding pIC50": 7.0}
{"smiles": "CC(C)(C)S(=O)(=O)c1ccc(N2C(=O)Nc3c(C(=O)N[C@@H]4CCCNC4)sc4nccc2c34)cc1", "note": "[Example 650, (R)-5-(4-(tert-Butylsulfonyl)phenyl)-4-oxo-N-(piperidin-3-yl)-4,5-dihydro-3H-1-thia-3,5,8-triazaacenaphthylene-2-carboxamide]", "BTK_I_binding pIC50": "<5"}
{"smiles": "CC(=O)c1cccc(N2C(=O)Nc3c(C(=O)N[C@@H]4CCCN(C(=O)OC(C)(C)C)C4)sc4nccc2c34)c1", "note": "[Example 649, (R)-tert-Butyl 3-(5-(3-acetylphenyl)-4-oxo-4,5-dihydro-3H-1-thia-3,5,8-triazaacenaphthylene-2-carboxamido)piperidine-1-carboxylate]", "BTK_I_binding pIC50": "<5"}
{"smiles": "CNCC(=O)N1CC[C@@H](NC(=O)c2sc3nccc4c3c2NC(=O)N4c2cccc(-c3ccccc3)c2)C1", "note": "[Example 601, (R)-5-([1,1′-Biphenyl]-3-yl)-N-(1-(2-(methylamino)acetyl)pyrrolidin-3-yl)-4-oxo-4,5-dihydro-3H-1-thia-3,5,8-triazaacenaphthylene-2-carboxamide]", "BTK_I_binding pIC50": 6.4}
{"target": "unphosphorylated-BTK kinase domain (UP-BTK), GST-tagged human BTK (389-659aa) (Homo sapiens (Human), UniProt Q06187)", "assay": "BTK kinase Lanthascreen binding assay", "details": "pIC50 = negative log of the IC50 in molar; 60 minutes incubation, 50 nM Tracer 236", "how_it_was_run": "as §1"}
{"smiles": "C=CC(=O)N1CC[C@@H](NC(=O)c2sc3nccc4c3c2NC(=O)N4c2ccc(Oc3c(F)cccc3F)cc2C)C1", "note": "[Example 17, (R)—N-(1-Acryloylpyrrolidin-3-yl)-5-(4-(2,6-difluorophenoxy)-2-methylphenyl)-4-oxo-4,5-dihydro-3H-1-thia-3,5,8-triazaacenaphthylene-2-carboxamide]", "BTK_I_binding pIC50": 7.7}
{"smiles": "CC(C)=C(C#N)C(=O)N1CCC[C@@H](NC(=O)c2sc3nccc4c3c2NC(=O)N4c2ccc(Oc3ccccc3)cc2C)C1", "note": "[Example 140, (R)—N-(1-(2-Cyano-3-methylbut-2-enoyl)piperidin-3-yl)-5-(2-methyl-4-phenoxyphenyl)-4-oxo-4,5-dihydro-3H-1-thia-3,5,8-triazaacenaphthylene-2-carboxamide]", "BTK_I_binding pIC50": 6.7}
{"smiles": "CC(C)=C(Cl)C(=O)N1CCC[C@@H](NC(=O)c2sc3nccc4c3c2NC(=O)N4c2ccc(Oc3ccccc3)cc2C)C1", "note": "[Example 260, (R)—N-(1-(2-chloro-3-methylbut-2-enoyl)piperidin-3-yl)-5-(2-methyl-4-phenoxyphenyl)-4-oxo-4,5-dihydro-3H-1-thia-3,5,8-triazaacenaphthylene-2-carboxamide]", "BTK_I_binding pIC50": 6.5}
{"smiles": "Cc1cc(Oc2ccccc2)ccc1N1C(=O)Nc2c(C(=O)N[C@@H]3CCCN(C(=O)CN)C3)sc3nccc1c23", "note": "[Example 151, (R)—N-(1-(2-Aminoacetyl)piperidin-3-yl)-5-(2-methyl-4-phenoxyphenyl)-4-oxo-4,5-dihydro-3H-1-thia-3,5,8-triazaacenaphthylene-2-carboxamide]", "BTK_I_binding pIC50": 7.2}
{"smiles": "CO[C@@H]1CNC[C@@H]1NC(=O)c1sc2nccc3c2c1NC(=O)N3c1ccc(Oc2ccccc2)cc1C", "note": "[Example 211, N-((3S,4R)-4-Methoxypyrrolidin-3-yl)-5-(2-methyl-4-phenoxyphenyl)-4-oxo-4,5-dihydro-3H-1-thia-3,5,8-triazaacenaphthylene-2-carboxamide]", "BTK_I_binding pIC50": 6.7}
{"smiles": "Cc1cc(Oc2ccccc2)ccc1N1C(=O)Nc2c(C(=O)N[C@@H]3CCN(C4CC4)C3)sc3nccc1c23", "note": "[Example 149, (R)—N-(1-Cyclopropylpyrrolidin-3-yl)-5-(2-methyl-4-phenoxyphenyl)-4-oxo-4,5-dihydro-3H-1-thia-3,5,8-triazaacenaphthylene-2-carboxamide]", "BTK_I_binding pIC50": 6.8}
{"target": "unphosphorylated-BTK kinase domain (UP-BTK), GST-tagged human BTK (389-659aa) (Homo sapiens (Human), UniProt Q06187)", "assay": "BTK kinase Lanthascreen binding assay", "details": "pIC50 = negative log of the IC50 in molar; 60 minutes incubation, 50 nM Tracer 236; read-out: BTK_I_binding pIC50 (converted)", "how_it_was_run": "as §1", "units": {"IC50": "nM"}}
{"smiles": "Cc1cc(Oc2ccccc2)ccc1N1C(=O)Nc2c(C(=O)NC3COCCN(C#N)C3)sc3nccc1c23", "note": "(centres unmarked) [Example 31, N-(4-Cyano-1,4-oxazepan-6-yl)-5-(2-methyl-4-phenoxyphenyl)-4-oxo-4,5-dihydro-3H-1-thia-3,5,8-triazaacenaphthylene-2-carboxamide]", "IC50": 20}
{"target": "unphosphorylated-BTK kinase domain (UP-BTK), GST-tagged human BTK (389-659aa) (Homo sapiens (Human), UniProt Q06187)", "assay": "BTK kinase Lanthascreen binding assay", "details": "unphosphorylated-BTK kinase domain, 50 nM Tracer 236, 60 minutes; pIC50 = negative log of the IC50 in molar", "how_it_was_run": "as §1"}
{"smiles": "O=C(N[C@@H]1CCCNC1)c1sc2nccc3c2c1NC(=O)N3c1ccc(-c2ccccc2)cc1", "note": "[Example 344, (R)-5-([1,1′-Biphenyl]-4-yl)-4-oxo-N-(piperidin-3-yl)-4,5-dihydro-3H-1-thia-3,5,8-triazaacenaphthylene-2-carboxamide]", "BTK_I_binding pIC50": 5.0}
{"smiles": "CC(C)N1C(=O)Nc2c(C(=O)N[C@@H]3CCCNC3)sc3nccc1c23", "note": "[Example 361, (R)-5-Isopropyl-4-oxo-N-(piperidin-3-yl)-4,5-dihydro-3H-1-thia-3,5,8-triazaacenaphthylene-2-carboxamide]", "BTK_I_binding pIC50": "<5"}
{"smiles": "Cc1cc(Oc2ccccc2)ccc1N1C(=O)Nc2c(C(=O)N[C@@H]3CCCN(C(=O)CCO)C3)sc3nccc1c23", "note": "(single isomer, unassigned) [Example 318, (R)—N-(1-(3-Hydroxypropanoyl)piperidin-3-yl)-5-(*R)-(2-methyl-4-phenoxyphenyl)-4-oxo-4,5-dihydro-3H-1-thia-3,5,8-triazaacenaphthylene-2-carboxamide]", "BTK_I_binding pIC50": 5.8}
{"smiles": "O=C1CCC(NC(=O)c2sc3nccc4c3c2NC(=O)N4c2ccc(Oc3ccccc3)cc2)CN1", "note": "(centres unmarked) [Example 578, 4-Oxo-N-(6-oxopiperidin-3-yl)-5-(4-phenoxyphenyl)-4,5-dihydro-3H-1-thia-3,5,8-triazaacenaphthylene-2-carboxamide]", "BTK_I_binding pIC50": 6.9}
{"smiles": "C=CC(=O)N1CCC[C@@H](NC(=O)c2sc3nccc4c3c2NC(=O)N4c2ccc(OC3CCC3)cc2C)C1", "note": "(single isomer, unassigned) [Example 501, (R)—N-(1-Acryloylpiperidin-3-yl)-5-(*S)-(4-cyclobutoxy-2-methylphenyl)-4-oxo-4,5-dihydro-3H-1-thia-3,5,8-triazaacenaphthylene-2-carboxamide]", "BTK_I_binding pIC50": 7.9}
{"smiles": "Cc1cc(Oc2ccccc2)c(F)cc1N1C(=O)Nc2c(C(=O)N[C@H]3CCCOC3)sc3nccc1c23", "note": "[Example 308, (S)-5-(5-Fluoro-2-methyl-4-phenoxyphenyl)-4-oxo-N-(tetrahydro-2H-pyran-3-yl)-4,5-dihydro-3H-1-thia-3,5,8-triazaacenaphthylene-2-carboxamide]", "BTK_I_binding pIC50": 6.0}
{"smiles": "Cc1cc(Oc2ccccc2)ccc1N1C(=O)Nc2c(C(=O)N[C@H]3CNC(=O)C3)sc3nccc1c23", "note": "(single isomer, unassigned) [Example 472, (*R)-5-(*R)-(2-Methyl-4-phenoxyphenyl)-4-oxo-N-(5-oxopyrrolidin-3-yl)-4,5-dihydro-3H-1-thia-3,5,8-triazaacenaphthylene-2-carboxamide]", "BTK_I_binding pIC50": 7.4}
{"smiles": "C=CC(=O)N1CC[C@@H](NC(=O)c2sc3nccc4c3c2NC(=O)N4c2ccnc(-c3ccccc3)c2)C1", "note": "[Example 567, (R)—N-(1-Acryloylpyrrolidin-3-yl)-4-oxo-5-(2-phenylpyridin-4-yl)-4,5-dihydro-3H-1-thia-3,5,8-triazaacenaphthylene-2-carboxamide]", "BTK_I_binding pIC50": 7.4}
{"target": "unphosphorylated-BTK kinase domain (UP-BTK), GST-tagged human BTK (389-659aa) (Homo sapiens (Human), UniProt Q06187)", "assay": "BTK kinase Lanthascreen binding assay", "details": "unphosphorylated-BTK kinase domain, 60 minutes incubation, 50 nM Tracer 236; pIC50 = negative log of the IC50 in molar", "how_it_was_run": "as §1"}
{"smiles": "O=C(NCCN1CCCC1)c1sc2nccc3c2c1NC(=O)N3c1ccc(Oc2ccccc2)cc1", "note": "[Example 927, 4-Oxo-5-(4-phenoxyphenyl)-N-(2-(pyrrolidin-1-yl)ethyl)-4,5-dihydro-3H-1-thia-3,5,8-triazaacenaphthylene-2-carboxamide]", "BTK_I_binding pIC50": 6.2}
{"smiles": "O=C(N[C@@H]1CCCNC1)c1sc2nccc3c2c1NC(=O)N3c1ccc(Oc2ccccc2)nc1", "note": "[Example 922, (R)-4-Oxo-5-(6-phenoxypyridin-3-yl)-N-(piperidin-3-yl)-4,5-dihydro-3H-1-thia-3,5,8-triazaacenaphthylene-2-carboxamide]", "BTK_I_binding pIC50": 6.3}
